Assays:
Assay type in all cases: in vivo
[1] = tested on: Amaranthus retroflexus (AMARE); experiment: Herbicidal pre-emergence action, test C (Table C6); settings: visual scoring after about 3 weeks, 100% = plants have died, 0% = like control plants
Text: (§1) Seeds of mono- and dicotyledonous weed plants were placed in plastic pots in sandy loam soil (doubly sown with one species each of mono- or dicotyledonous weed plants per pot) and covered with soil. The compounds of the invention, formulated in the form of wettable powders (WP) or as emulsion concentrates (EC), were then applied onto the surface of the covering soil as aqueous suspension or emulsion with addition of 0.5% additive at a water application rate of 600 liters per hectare (converted). After the treatment, the pots were placed in a greenhouse and kept under good growth conditions for the test plants. After about 3 weeks, the effect of the preparations was scored visually in comparison with untreated controls as percentages. For example, 100% activity=the plants have died, 0% activity=like control plants. Tables C1 to C12 below show the effects of selected compounds of the general formula (I) according to Table 1 on various harmful plants and an application rate corresponding to 1280 or 320 g/ha, which were obtained by the experimental procedure mentioned above.

[2] = tested on: Amaranthus retroflexus (AMARE); experiment: Herbicidal post-emergence action (Table B6); settings: visual rating about 3 weeks after treatment, 100% = plants have died, 0% = like control plants
Procedure: (§2) Seeds of mono- and dicotyledonous weed plants were placed in plastic pots in sandy loam soil (doubly sown with in each case one species of mono- or dicotyledonous weed plants per pot), covered with soil and cultivated in a greenhouse under controlled growth conditions. 2 to 3 weeks after sowing, the test plants were treated at the one-leaf stage. The compounds of the invention, formulated in the form of wettable powders (WP) or as emulsion concentrates (EC), were applied onto the green parts of the plants as aqueous suspension or emulsion with addition of 0.5% additive at a water application rate of 600 liters per hectare (converted). After the test plants had been kept in the greenhouse under optimum growth conditions for about 3 weeks, the activity of the preparations was rated visually in comparison to untreated controls. For example, 100% activity=the plants have died, 0% activity=like control plants. Tables B1 to B12 below show the effects of selected compounds of the general formula (I) according to Table 1 on various harmful plants and an application rate corresponding to 1280 or 320 g/ha, which were obtained by the experimental procedure mentioned above.

Poa annua (POAAN) [3] = experiment: Herbicidal post-emergence action (Table B3); settings: rated visually after about 3 weeks, 100% = plants have died, 0% = like control plants
Procedure: as §2

[4] = tested on: harmful plants ABUTH, AMARE, ECHCG, LOLRI, MATIN, POAAN, SETVI, STEME, ALOMY, DIGSA, KCHSC and VERPE; experiment: Herbicidal post-emergence action, summary of Tables B1-B12; settings: application rate of 1280 or 320 g of active ingredient per hectare; summary in words
Procedure: as §2, with “controls.” for “controls. For example, 100% activity=the plants have died, 0% activity=like control plants. Tables B1 to B12 below show the effects of selected compounds of the general formula (I) according to Table 1 on various harmful plants and an application rate corresponding to 1280 or 320 g/ha, which were obtained by the experimental procedure mentioned above.”
(§3) For example, 100% activity=the plants have died, 0% activity=like control plants.
Tables B1 to B12 below show the effects of selected compounds of the general formula (I) according to Table 1 on various harmful plants and an application rate corresponding to 1280 or 320 g/ha, which were obtained by the experimental procedure mentioned above.
As the results of Tables B1-B12 show, compounds no.

Setaria viridis (SETVI) = experiment: Herbicidal pre-emergence action, test C (Table C4); settings: visual scoring after about 3 weeks, 100% = plants have died, 0% = like control plants
Text: as §1

Stellaria media (STEME) [5] = experiment: Herbicidal post-emergence action (Table B8); settings: visual rating about 3 weeks after treatment, 100% = plants have died, 0% = like control plants
Procedure: as §2

[6] = tested on: Matricaria inodora (MATIN); experiment: Herbicidal pre-emergence action, test C (Table C7); settings: dosage 1280 g/ha; visual scoring after about 3 weeks; 100% = plants have died, 0% = like control plants
Text: as §1

Stellaria media (STEME) [7] = experiment: Herbicidal pre-emergence action, test C (Table C8); settings: visual scoring after about 3 weeks, 100% = plants have died, 0% = like control plants
Text: as §1

[8] = tested on: Abutilon theophrasti (ABUTH); experiment: Herbicidal pre-emergence action, test C (Table C5); settings: visual scoring after about 3 weeks, 100% = plants have died, 0% = like control plants
Text: as §1

Poa annua (POAAN) [9] = experiment: Herbicidal pre-emergence action, test C (Table C3); settings: visual scoring after about 3 weeks, 100% = plants have died, 0% = like control plants
Text: as §1

[10] = tested on: harmful plants ABUTH, AMARE, ECHCG, LOLRI, MATIN, POAAN, SETVI, STEME, ALOMY, DIGSA, KCHSC and VERPE; experiment: Herbicidal pre-emergence action (test C), summary of Tables C1-C12; settings: application rate of 1280 or 320 g of active ingredient per hectare; summary in words
Text: as §1, with “percentages.” for “percentages. For example, 100% activity=the plants have died, 0% activity=like control plants. Tables C1 to C12 below show the effects of selected compounds of the general formula (I) according to Table 1 on various harmful plants and an application rate corresponding to 1280 or 320 g/ha, which were obtained by the experimental procedure mentioned above.”
as §3
Tables C1 to C12 below show the effects of selected compounds of the general formula (I) according to Table 1 on various harmful plants and an application rate corresponding to 1280 or 320 g/ha, which were obtained by the experimental procedure mentioned above.
As the results of Tables C1-C12 show, compounds no.

[11] = tested on: Abutilon theophrasti (ABUTH); experiment: Herbicidal post-emergence action (Table B5); settings: rated visually after about 3 weeks, 100% = plants have died, 0% = like control plants
Procedure: as §2

Veronica persica (VERPE) [12] = experiment: Herbicidal post-emergence action (Table B12); settings: visual rating about 3 weeks after treatment, 100% = plants have died, 0% = like control plants
Procedure: as §2

Veronica persica (VERPE) [13] = experiment: Herbicidal pre-emergence action, test C (Table C12); settings: dosage 1280 g/ha, visual scoring vs untreated controls
Text: as §1

[14] = tested on: Digitaria sanguinalis (DIGSA); experiment: Herbicidal pre-emergence action, test C (Table C10); settings: dosage 1280 g/ha; visual scoring after about 3 weeks; 100% = plants have died, 0% = like control plants
Text: as §1

| Structure (SMILES) | Pre-emergence action against Amaranthus retroflexus (AMARE) ([1]; dosage 320 g/ha) [%] | Pre-emergence action against Amaranthus retroflexus (AMARE) ([1]; dosage 1280 g/ha) [%] | Post-emergence action against Amaranthus retroflexus (AMARE) ([2]; dosage 320 g/ha) [%] | Post-emergence action against Amaranthus retroflexus (AMARE) ([2]; dosage 1280 g/ha) [%] | Post-emergence action against Poa annua (POAAN) (Poa annua (POAAN) [3]; 1280 g/ha) [%] | herbicidal activity against the harmful plants of Tables B1-B12 in post-emergence treatment [4] | Pre-emergence action against Setaria viridis (SETVI) (Setaria viridis (SETVI); dosage 1280 g/ha) [%] | Post-emergence action against Stellaria media (STEME) (Stellaria media (STEME) [5]; dosage 1280 g/ha) [%] | Pre-emergence action against Stellaria media (STEME) (Stellaria media (STEME) [7]; dosage 320 g/ha) [%] | Pre-emergence action against Stellaria media (STEME) (Stellaria media (STEME) [7]; dosage 1280 g/ha) [%] | Pre-emergence action against Abutilon theophrasti (ABUTH) ([8]; dosage 1280 g/ha) [%] | Pre-emergence action against Poa annua (POAAN) (Poa annua (POAAN) [9]; dosage 1280 g/ha) [%] | herbicidal activity against the harmful plants of Tables C1-C12 in pre-emergence treatment [10] | Post-emergence action against Abutilon theophrasti (ABUTH) ([11]; 1280 g/ha) [%] | Post-emergence action against Poa annua (POAAN) (Poa annua (POAAN) [3]; 320 g/ha) [%] | Post-emergence action against Veronica persica (VERPE) (Veronica persica (VERPE) [12]; dosage 1280 g/ha) [%] | Post-emergence action against Veronica persica (VERPE) (Veronica persica (VERPE) [12]; dosage 320 g/ha) [%] | other results |
| --- | --- | --- | --- | --- | --- | --- | --- | --- | --- | --- | --- | --- | --- | --- | --- | --- | --- | --- |
| N#Cc1ccc(Oc2cccc(F)c2-c2cc(C(F)(F)F)on2)nc1 [Example 1-3] | 100 | 100 | 100 | 100 | 100 | very good herbicidal activity | 100 | 90 | 90 | 100 | 100 | 90 | very good herbicidal activity |  |  |  |  | Pre-emergence action against Setaria viridis (SETVI) (Setaria viridis (SETVI); dosage 320 g/ha): 100%; Pre-emergence action against Matricaria inodora (MATIN) [6]: 90%; Pre-emergence action against Abutilon theophrasti (ABUTH) ([8]; dosage 320 g/ha): 90% |
| Fc1cccc(Oc2ncc(Cl)cc2Cl)c1-c1cc(C(F)(F)F)on1 [Example 1-4] |  | 90 |  |  |  | very good herbicidal activity |  | 100 |  |  |  |  | very good herbicidal activity |  |  |  |  |  |
| Fc1cccc(Oc2ccc(Cl)cn2)c1-c1cc(C(F)F)on1 [Example 1-9] | 100 | 100 | 100 | 100 | 100 | very good herbicidal activity | 100 | 100 | 100 | 100 | 100 | 100 | very good herbicidal activity | 100 | 100 |  |  | Post-emergence action against Abutilon theophrasti (ABUTH) ([11]; 320 g/ha): 100%; Post-emergence action against Stellaria media (STEME) (Stellaria media (STEME) [5]; dosage 320 g/ha): 100%; Pre-emergence action against Matricaria inodora (MATIN) [6]: 90%; Pre-emergence action against Poa annua (POAAN) (Poa annua (POAAN) [9]; dosage 320 g/ha): 100% |
| Fc1cccc(Oc2ncc(C(F)(F)F)cc2Cl)c1-c1cc(C(F)F)no1 [Example 1-22] |  | 100 |  |  | 100 | very good herbicidal activity | 90 |  | 90 | 100 |  | 100 | very good herbicidal activity | 100 | 100 |  |  |  |
| Cc1ccc(-c2cc(C(F)F)no2)c(Oc2ncc(Cl)cc2Cl)c1 [Example 1-28] |  |  | 90 | 100 | 90 | very good herbicidal activity | 90 | 100 |  | 90 |  |  | very good herbicidal activity |  |  | 90 |  | Pre-emergence action against Setaria viridis (SETVI) (Setaria viridis (SETVI); dosage 320 g/ha): 90% |
| Cc1ccc(-c2cc(C(F)F)no2)c(Oc2ncccc2F)c1 [Example 1-33] |  |  |  |  |  | very good herbicidal activity | 100 |  | 90 | 100 | 90 | 90 | very good herbicidal activity |  |  | 100 | 90 | Pre-emergence action against Veronica persica (VERPE) (Veronica persica (VERPE) [13]): 90% |
| FC(F)c1cc(-c2ccc(Br)cc2Oc2ccc(Cl)cn2)on1 [Example 1-62] | 90 | 100 | 100 | 100 | 100 | very good herbicidal activity | 100 | 100 |  |  | 90 | 100 | very good herbicidal activity | 100 | 100 | 100 | 100 | Pre-emergence action against Digitaria sanguinalis (DIGSA) [14]: 100%; Post-emergence action against Abutilon theophrasti (ABUTH) ([11]; 320 g/ha): 100%; Pre-emergence action against Veronica persica (VERPE) (Veronica persica (VERPE) [13]): 90%; Pre-emergence action against Poa annua (POAAN) (Poa annua (POAAN) [9]; dosage 320 g/ha): 90% |
| Cn1nc(-c2cc(F)ccc2Oc2ccc(Cl)cn2)cc1C(F)F [Example 1-65] | 90 | 100 | 100 | 100 |  | very good herbicidal activity |  |  |  |  |  | 100 | very good herbicidal activity |  |  | 100 | 100 |  |

From US12052991B2, “Substituted pyridinyloxybenzenes and salts thereof and use thereof as herbicidal agents” (Bayer Aktiengesellschaft, priority 2018, dated 2024)
